Source: patent US10330673B2, “Fluorescent chemical sensor for biological amines” (The Curators of the University of Missouri, priority 2013, dated 2019)

Assays:
[1] = Fluorescence response mode toward catecholamines; assay type: binding; details: catecholamines norepinephrine and dopamine
[2] = tested on: NE-enriched chromaffin cells; experiment: Fixed-cell staining with I-2 and anti-PNMT antibody, NE-enriched cells; assay type: cell-based, bovine; details: 1 μM, fixed in 4% paraformaldehyde, visualized at 525 nm
Source text: To further validate the selectivity of the inventive sensor, the inventive detection method is validated with an established procedure in which phenylethanolamine N-methyltransferase (PNMT) is stained with an antibody and visualized with a Cy3-conjugated secondary antibody. It has been shown that epinephrine-enriched cell populations gave the highest level of PNMT staining, while norepinephrine-enriched populations gave lower staining (ca. 20% of that with epinephrine-enriched cells). For this experiment, three populations of chromaffin cells (norepinephrine-enriched, epin ephrine-enriched, and mixed) were stained with Compound I-2 and fixed in 4% paraformaldehyde. The fixed cells were stained with the anti-PNMT and secondary antibodies.
Chromaffin cells were isolated from bovine adrenal glands as previously described. […]
NE-enriched cells, EP-enriched cells and mixed cells stained with I-2 (1 μM) and plated on 0.0025% Poly (1-lysine) coated cover slips, after three washed with pre-warmed phosphate-buffered saline (pH=7.4, PBS), were fixed in 4% paraformaldehyde (Sigma, St. Louis, Mo., USA) in PBS for 60 min at room temperature (RT), followed by 6 min in methanol chilled to −20° C. […] After three washed in PBS, bound antibody was detected using Cy™3-conjugated AffiniPure Donkey Anti-Rabbit (1:150 dilution, Jackson ImmunoResearch Laboratories, Inc, Nest Grove, Pa., 19390). […]

[3] = Fluorescence quantum yield, unbound fluorophore; assay type: physicochemical; details: no amine guest (sensor alone)
Procedure: (§1) Steady-state fluorescence spectroscopic studies were performed using a Horiba Scientific Fluorolog-3 Model FL3C-111 spectrofluorometer and data was collected and analyzed using HJY FluorEssence™ 3.5.1.20 software package. UV-visible spectra were obtained on a Varian Cary 1E UV-visible spectrophotometer. A stock solution of each benzene- or thiophene-based coumarin-3-aldehyde derivative (1 μM) in buffer (25 mM HEPES, 50 mM Na2S2O3, pH=5.0) was prepared. Each solution contained 1% (v/v) DMSO as a cosolvent except as noted. The slit width was 2 nm for both excitation and emission. The bound benzene- and thiophene-coumarin-3-aldehyde derivatives contained 500 mM glutamate (pH=5.0).
(§2) To determine the relative quantum yield of fluorescence (Φfl) for the benzene-based derivatives, a 1.0 μM solution of fluorescein (absolute Φfl=0.85) in 0.1 N NaOH (pH 13) was used as a fluorescence standard. The unbound derivatives were excited at 473 nm and the bound derivatives were excited at 488 nm. To determine the relative quantum yield of fluorescence (Φfl) for the thiophene-based derivatives, a 1.0 μM solution of rhodamine B (absolute Φfl=0.31) in water (pH 7) was used as a fluorescence standard. The unbound derivatives were excited at 473 nm and the bound derivatives were excited at 515 nm. Quantum yields were obtained in triplicate and calculated as per the following equation: […]

[4] = Fluorescence titration of sensor with lysine; assay type: binding; details: amine guest lysine
[5] = Fluorescence quantum yield of sensor bound to glutamate; assay type: physicochemical
Procedure: as §1, §2

[6] = Fluorescence titration of sensor with epinephrine; assay type: binding
Procedure: Fluorescence spectra were recorded on a Shimadzu RF-5301 PC spectrofluorometer at 37° C. A 1 mg/mL stock solution of I-2 in DMSO was prepared. A stock solution of I-2 in buffer (1×10^−5 M, 25 mM HEPES, 50 mM Na2S2O3, pH=5.0) was prepared. Norepinephrine, dopamine, epinephrine, and glutamate stock solutions were prepared by separately dissolving the analytes at the concentration to be used in the titration with the buffered stock solution of I-2 (thus avoiding dilution of I-2 during the experiment). I-2 was titrated with aliquots of analyte solution. The sensor was excited at 488 nm with slit widths of 5 nm.
Fluorescence spectra were recorded on a Shimadzu RF-5301 PC spectrofluorometer at 37° C. A separate 1 mg/mL stock solution of each coumarin-3-aldehyde derivative in DMSO was prepared. An aqueous stock solution of each derivative (10 μM) in buffer (25 mM HEPES, 50 mM Na2S2O3, pH=5.0) was prepared. Norepinephrine, dopamine, glutamate, and epinephrine stock solutions were prepared by separately dissolving the solid analytes at the concentration to be used in the titration with the buffered stock solutions described above and thus, avoiding dilution of the sensor during the experiment. The benzene-based NS521 derivatives were excited at 488 nm. The thiophene-based derivatives were excited at 515 nm.

SMILES: CCN(CC)c1ccc2c(-c3ccc(OC)cc3)c(C=O)c(=O)oc2c1 [Compound I-2, 7-diethylamino-3-formyl-4-(4′-methoxyphenyl)coumarin]
- mode of fluorescence response [1]: turn-on fluorescent sensor
- staining of fixed cells by sensor [2]: stain brightly
- Quantum Yield (Φ) [3]: 0.0029
- Ka ([4]; fluorescence spectroscopy, λex = 488 nm, λem = 521 nm): 11 M⁻¹
- Isat/Io (λex = 488 nm) ([4]; intensity at saturation from fit to binding isotherm): 15.1
- Quantum Yield (Φ) ([5]; bound to glutamate): 0.0095
- difference in quantum yields, bound to glutamate vs bound to norepinephrine ([5]; in words): three-fold
- Ka ([6]; amine guest epinephrine, fluorescence spectroscopy, λex = 488 nm, λem = 521 nm, pH 5.0, 37° C.): 0 M⁻¹
- interaction with secondary amines such as epinephrine ([6]; in words): does not interact
